Laboratory results reported in paper PMC12290638, “Cubebin, a Lignan Isolated from Drimys andina, Exhibits Potent and Selective Antiparasitic Activity against Angiostrongylus cantonensis” (ACS Omega, 2025).
“Also recorded” adds a separate entry of the source. Where two headings read alike, the source gives them in different places.

Key:
[1] = tested on: Angiostrongylus cantonensis infective third-stage (L3) larvae; test: Antiparasitic assay with A. cantonensis L3 larvae (motility); type: cell-based; conditions: for EC50: read-out: A. cantonensis EC50, L3; for selectivity index, L3: SI = CC50 (human HaCaT cells)/EC50 (L3)
Experimental: (§1) The life cycle of A. cantonensis (NPDN-AC strain) was maintained at the Research Center on Neglected Diseases, Guarulhos University, using either Biomphalaria glabrata (freshwater snails) or Achatina fulica (terrestrial mollusks) as intermediate hosts, and Wistar rats (Rattus norvegicus) as definitive hosts. All animals were maintained under controlled conditions (22 °C, ∼50% humidity) with ad libitum access to food and water.
Third-stage larvae (L3) of A. cantonensis were obtained from infected A. fulica via artificial digestion in HCl-pepsin solution, followed by sedimentation using the modified Rugai method. Approximately 50 larvae were added per well in 96-well plates. Cubebin and albendazole were tested starting at 100 μM in a serial dilution format for EC50 estimation. Plates were incubated at 21 °C, and larval viability was assessed at 0 and 24 h using an inverted microscope. […] Efficacy was defined as ≥60% immobility after 24 h.
(§2) EC50 and CC50 values were calculated from nonlinear sigmoidal dose–response curves using GraphPad Prism version 8.0 (San Diego, CA). Group differences were analyzed using one-way ANOVA followed by Tukey’s post hoc test. A P-value of <0.05 was considered statistically significant.

[2] = tested on: Angiostrongylus cantonensis first-stage (L1) larvae; test: Antiparasitic assay with A. cantonensis L1 larvae (motility); type: cell-based; conditions: for EC50: Angiostrongylus cantonensis, read-out: A. cantonensis EC50, L1; for selectivity index, L1: SI = CC50 (human HaCaT cells)/EC50 (L1)
Experimental: as §1
First-stage larvae (L1) of A. cantonensis were isolated from the feces of infected Wistar rats using the Rugai sedimentation technique, followed by washing in RPMI 1640 medium containing antibiotics. Approximately 50 larvae were transferred to each well of a 96-well plate. Cubebin and albendazole (positive control) were tested starting at 100 μM using a serial dilution format for EC50 determination. Plates were incubated at 21 °C. Untreated larvae served as negative controls. […] Efficacy was defined as ≥60% of larvae becoming immobile after 24 h.
as §2

[3] = tested on: Caenorhabditis elegans (Bristol N2 strain) L4 larvae; test: Lethal toxicity assay in C. elegans; type: in vivo; conditions: for C. elegans LD50 (lethal concentration 50%): L4 larvae, immobility, 72 h exposure per b20 (method b64: 24 h); for toxicity in C. elegans: cubebin at concentrations up to 1000 μM
Experimental: The nematode C. elegans (Bristol N2 strain) was maintained on nematode growth medium (NGM) plates seeded with Escherichia coli […].
Synchronized fourth-stage larvae (L4) of C. elegans were transferred to 96-well plates containing M9 medium, with approximately 60 larvae per well. Cubebin was tested at concentrations starting from 1000 μM. Ivermectin (10 μM) served as the positive control, while 0.5% DMSO was used as the negative control. After 24 h of incubation at 21 °C, larval viability was evaluated based on movement. Toxicity was defined as ≥60% immobility.

[4] = Cytotoxicity assay (MTT), Vero cells; type: cell-based, monkey; conditions: monkey, Vero cells, MTT, 48 h exposure per figure legend (method: 24 h), read-out: mammalian cells CC50, monkey
Experimental: (§3) HaCaT cells (human keratinocytes) were obtained from the Banco de Células do Rio de Janeiro (Duque de Caxias, RJ, Brazil), and Vero cells (monkey kidney epithelial cells) were purchased from the American Type Culture Collection (ATCC CCL-81; Manassas, V). Cells were cultured in DMEM supplemented with 2 mM L-glutamine (Vitrocell), 100 U/mL penicillin, 100 μg/mL streptomycin, and 10% heat-inactivated fetal bovine serum, and maintained at 37 °C in a humidified atmosphere containing 5% CO2.
(§4) Cytotoxicity was evaluated using the MTT assay as previously described. Briefly, cells were seeded into 96-well plates (Corning) at a density of 2 × 10^3 cells per well and exposed to cubebin. The initial concentration tested was 500 μM, followed by 3-fold serial dilutions. Doxorubicin (15 μM) served as the positive control, while 0.5% DMSO was used as negative control. After 24 h of incubation at 37 °C with 5% CO2, MTT solution (Sigma) was added, and plates were incubated for an additional 4 h. Absorbance was measured at 595 nm using a spectrophotometer (Epoch, BioTek Instruments, Winooski, VT). Cell viability was expressed as a percentage relative to control wells. All assays were performed in triplicate and repeated independently three times.
as §2

[5] = tested on: Vero cells (monkey kidney epithelial cells); test: Cytotoxicity assay (MTT), Vero cells; type: cell-based; conditions: at concentrations up to 200 μM
Experimental: as §3, §4, §2

[6] = tested on: HaCaT cells (human keratinocytes); test: Cytotoxicity assay (MTT), HaCaT cells; type: cell-based; conditions: at concentrations up to 200 μM
Experimental: as §3, §4, §2

[7] = Cytotoxicity assay (MTT), HaCaT cells; type: cell-based, human; conditions: human, HaCaT cells, MTT, 48 h exposure per figure legend (method: 24 h), read-out: mammalian cells CC50, human
Experimental: as §3, §4, §2

[8] = 24 h, score 1 = immotile to 4 = highly active

SMILES | EC50 ([1]; Angiostrongylus cantonensis, 24 h) [µM] | selectivity index, L3 [1] | EC50 ([2]; 24 h) [µM] | selectivity index, L1 [2] | C. elegans LD50 (lethal concentration 50%) [3] [µM] | toxicity in C. elegans [3] | CC50 at 48 h [4] [µM] | cytotoxicity in Vero cells [5] | cytotoxicity in HaCaT cells [6] | CC50 at 48 h [7] [µM] | larval viability (motility) score, L3 [1, 8] | EC50 ([1]; Angiostrongylus cantonensis, 24 h, infective third-stage (L3) larvae, 24 h, 21 °C, immobility, mean ± SD, three independent experiments) [µM] | EC50 ([1]; infective third-stage (L3) larvae, 24 h, 21 °C, immobility, mean ± SD, three independent experiments) [µM] | larval viability (motility) score, L1 [2, 8] | EC50 ([2]; first-stage (L1) larvae, 24 h, 21 °C, immobility, mean ± SD, three independent experiments) [µM] | CC50 at 48 h ([4]; Vero cells (monkey kidney epithelial cells, ATCC CCL-81)) [µM] | CC50 at 48 h ([7]; HaCaT cells (human keratinocytes)) [µM]
CCCSc1ccc2nc(NC(=O)OC)[nH]c2c1 [albendazole, reference compound] | 12.3 ± 1.9 | >16.2 | 12.8 ± 1.3 | >15.6 | 13.6 ± 1.1 | potent toxicity | > 200 | no cytotoxicity | no cytotoxicity | > 200 | – | – | – | – | – | – | –
OC1OCC(Cc2ccc3c(c2)OCO3)C1Cc1ccc2c(c1)OCO2 (centres unmarked) [cubebin] | – | >13.1 | – | >42.5 | >1000 | no observable toxicity; also recorded: nontoxic | – | no cytotoxicity | no cytotoxicity | – | 1 | 15.3 | 15.2 ± 0.9 | 1 | 4.7 ± 0.8 | > 200 | > 200
